Reference: article PMC5428509, “Irreversible inhibition of BTK kinase by a novel highly selective inhibitor CHMFL-BTK-11 suppresses inflammatory response in rheumatoid arthritis model” (Scientific Reports, 2017)

Legend:
Test in all cases: biochemical
Set-up in all cases: KinomeScan competition binding panel (DiscoveRx), percent of control at 1 uM
Settings in all cases: read-out: Percent Control
ACVR2B = ACVR2B (Homo sapiens, UniProt Q13705)
Procedure, shortened: (§1)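 Selectivity profiled across 456 kinases/mutants by KinomeScan binding technology.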

ARK5 = biological target: T1, ARK5 (Homo sapiens, UniProt O60285)
T1 construct: gene NUAK1
Procedure, shortened: as §1

BMPR1A = BMPR1A (Homo sapiens, UniProt P36894)
Procedure, shortened: as §1

CDK11 = biological target: T2, CDK11 (Homo sapiens, UniProt Q9BWU1)
T2 construct: gene CDK19
Procedure, shortened: as §1

EGFR(L858R,T790M) = EGFR(L858R,T790M) (Homo sapiens, UniProt P00533, L858R/T790M)
Procedure, shortened: as §1

EPHB4 = EPHB4 (Homo sapiens, UniProt P54760)
Procedure, shortened: as §1

FES = FES (Homo sapiens, UniProt P07332)
Procedure, shortened: as §1

FLT3-autoinhibited = FLT3-autoinhibited (Homo sapiens, UniProt P36888)
Procedure, shortened: as §1

GCN2(Kin.Dom.2,S808G) = biological target: T3, GCN2(Kin.Dom.2,S808G) (Homo sapiens, UniProt Q9P2K8, S808G)
T3 construct: gene EIF2AK4; Kin.Dom.2
Procedure, shortened: as §1

GSK3B = GSK3B (Homo sapiens, UniProt P49841)
Procedure, shortened: as §1

JNK1 = biological target: T4, JNK1 (Homo sapiens, UniProt P45983)
T4 construct: gene MAPK8
Procedure, shortened: as §1

LZK = biological target: T5, LZK (Homo sapiens, UniProt O43283)
T5 construct: gene MAP3K13
Procedure, shortened: as §1

MAP4K5 = MAP4K5 (Homo sapiens, UniProt Q9Y4K4)
Procedure, shortened: as §1

MKNK2 = MKNK2 (Homo sapiens, UniProt Q9HBH9)
Procedure, shortened: as §1

MRCKB = biological target: T6, MRCKB (Homo sapiens, UniProt Q9Y5S2)
T6 construct: gene CDC42BPB
Procedure, shortened: as §1

MST2 = biological target: T7, MST2 (Homo sapiens, UniProt Q13188)
T7 construct: gene STK3
Procedure, shortened: as §1

MYLK = MYLK (Homo sapiens, UniProt Q15746)
Procedure, shortened: as §1

NDR1 = biological target: T8, NDR1 (Homo sapiens, UniProt Q15208)
T8 construct: gene STK38
Procedure, shortened: as §1

NEK7 = NEK7 (Homo sapiens, UniProt Q8TDX7)
Procedure, shortened: as §1

PHKG1 = PHKG1 (Homo sapiens, UniProt Q16816)
Procedure, shortened: as §1

PRKCH = PRKCH (Homo sapiens, UniProt P24723)
Procedure, shortened: as §1

RIPK4 = RIPK4 (Homo sapiens, UniProt P57078)
Procedure, shortened: as §1

ROCK1 = ROCK1 (Homo sapiens, UniProt Q13464)
Procedure, shortened: as §1

[1] = biological target: T9, RSK2(Kin.Dom.1-N-terminal) (Homo sapiens, UniProt P51812)
T9 construct: gene RPS6KA3; Kin.Dom.1-N-terminal
Procedure, shortened: as §1

Sequence of ROCK1 (Q13464 whole entry): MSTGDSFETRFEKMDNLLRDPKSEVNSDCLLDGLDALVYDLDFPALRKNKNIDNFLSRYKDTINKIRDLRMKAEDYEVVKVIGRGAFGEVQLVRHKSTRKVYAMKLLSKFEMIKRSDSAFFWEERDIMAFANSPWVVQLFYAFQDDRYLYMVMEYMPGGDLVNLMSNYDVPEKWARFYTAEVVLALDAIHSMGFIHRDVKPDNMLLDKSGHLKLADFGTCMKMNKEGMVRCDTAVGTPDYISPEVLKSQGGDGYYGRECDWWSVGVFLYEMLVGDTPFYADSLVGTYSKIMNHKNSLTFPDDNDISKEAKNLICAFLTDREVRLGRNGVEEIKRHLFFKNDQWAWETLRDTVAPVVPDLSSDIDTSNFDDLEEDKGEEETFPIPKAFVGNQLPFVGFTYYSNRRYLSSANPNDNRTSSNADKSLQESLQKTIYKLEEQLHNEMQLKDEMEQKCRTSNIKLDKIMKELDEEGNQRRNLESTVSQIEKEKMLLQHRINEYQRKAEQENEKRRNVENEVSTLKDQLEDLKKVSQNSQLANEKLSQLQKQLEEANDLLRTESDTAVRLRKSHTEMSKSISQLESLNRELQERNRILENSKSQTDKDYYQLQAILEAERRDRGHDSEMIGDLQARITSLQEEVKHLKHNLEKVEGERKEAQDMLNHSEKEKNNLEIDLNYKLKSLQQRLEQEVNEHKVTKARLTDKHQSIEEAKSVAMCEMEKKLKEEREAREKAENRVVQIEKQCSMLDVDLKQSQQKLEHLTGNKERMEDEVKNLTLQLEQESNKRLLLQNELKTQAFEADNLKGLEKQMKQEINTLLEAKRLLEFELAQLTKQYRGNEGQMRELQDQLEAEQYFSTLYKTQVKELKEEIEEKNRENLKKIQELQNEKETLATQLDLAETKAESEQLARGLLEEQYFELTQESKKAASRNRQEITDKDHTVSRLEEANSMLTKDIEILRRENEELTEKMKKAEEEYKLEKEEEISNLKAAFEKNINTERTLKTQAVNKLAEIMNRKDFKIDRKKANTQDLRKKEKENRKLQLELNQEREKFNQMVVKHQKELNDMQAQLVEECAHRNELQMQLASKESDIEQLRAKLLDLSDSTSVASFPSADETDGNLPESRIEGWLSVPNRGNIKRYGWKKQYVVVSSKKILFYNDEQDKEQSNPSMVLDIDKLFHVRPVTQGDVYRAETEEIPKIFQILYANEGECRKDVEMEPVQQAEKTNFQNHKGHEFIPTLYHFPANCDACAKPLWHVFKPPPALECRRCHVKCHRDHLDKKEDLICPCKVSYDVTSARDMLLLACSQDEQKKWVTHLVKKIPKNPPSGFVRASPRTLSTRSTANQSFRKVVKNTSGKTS
T3 sequence (Q9P2K8 whole entry S808G): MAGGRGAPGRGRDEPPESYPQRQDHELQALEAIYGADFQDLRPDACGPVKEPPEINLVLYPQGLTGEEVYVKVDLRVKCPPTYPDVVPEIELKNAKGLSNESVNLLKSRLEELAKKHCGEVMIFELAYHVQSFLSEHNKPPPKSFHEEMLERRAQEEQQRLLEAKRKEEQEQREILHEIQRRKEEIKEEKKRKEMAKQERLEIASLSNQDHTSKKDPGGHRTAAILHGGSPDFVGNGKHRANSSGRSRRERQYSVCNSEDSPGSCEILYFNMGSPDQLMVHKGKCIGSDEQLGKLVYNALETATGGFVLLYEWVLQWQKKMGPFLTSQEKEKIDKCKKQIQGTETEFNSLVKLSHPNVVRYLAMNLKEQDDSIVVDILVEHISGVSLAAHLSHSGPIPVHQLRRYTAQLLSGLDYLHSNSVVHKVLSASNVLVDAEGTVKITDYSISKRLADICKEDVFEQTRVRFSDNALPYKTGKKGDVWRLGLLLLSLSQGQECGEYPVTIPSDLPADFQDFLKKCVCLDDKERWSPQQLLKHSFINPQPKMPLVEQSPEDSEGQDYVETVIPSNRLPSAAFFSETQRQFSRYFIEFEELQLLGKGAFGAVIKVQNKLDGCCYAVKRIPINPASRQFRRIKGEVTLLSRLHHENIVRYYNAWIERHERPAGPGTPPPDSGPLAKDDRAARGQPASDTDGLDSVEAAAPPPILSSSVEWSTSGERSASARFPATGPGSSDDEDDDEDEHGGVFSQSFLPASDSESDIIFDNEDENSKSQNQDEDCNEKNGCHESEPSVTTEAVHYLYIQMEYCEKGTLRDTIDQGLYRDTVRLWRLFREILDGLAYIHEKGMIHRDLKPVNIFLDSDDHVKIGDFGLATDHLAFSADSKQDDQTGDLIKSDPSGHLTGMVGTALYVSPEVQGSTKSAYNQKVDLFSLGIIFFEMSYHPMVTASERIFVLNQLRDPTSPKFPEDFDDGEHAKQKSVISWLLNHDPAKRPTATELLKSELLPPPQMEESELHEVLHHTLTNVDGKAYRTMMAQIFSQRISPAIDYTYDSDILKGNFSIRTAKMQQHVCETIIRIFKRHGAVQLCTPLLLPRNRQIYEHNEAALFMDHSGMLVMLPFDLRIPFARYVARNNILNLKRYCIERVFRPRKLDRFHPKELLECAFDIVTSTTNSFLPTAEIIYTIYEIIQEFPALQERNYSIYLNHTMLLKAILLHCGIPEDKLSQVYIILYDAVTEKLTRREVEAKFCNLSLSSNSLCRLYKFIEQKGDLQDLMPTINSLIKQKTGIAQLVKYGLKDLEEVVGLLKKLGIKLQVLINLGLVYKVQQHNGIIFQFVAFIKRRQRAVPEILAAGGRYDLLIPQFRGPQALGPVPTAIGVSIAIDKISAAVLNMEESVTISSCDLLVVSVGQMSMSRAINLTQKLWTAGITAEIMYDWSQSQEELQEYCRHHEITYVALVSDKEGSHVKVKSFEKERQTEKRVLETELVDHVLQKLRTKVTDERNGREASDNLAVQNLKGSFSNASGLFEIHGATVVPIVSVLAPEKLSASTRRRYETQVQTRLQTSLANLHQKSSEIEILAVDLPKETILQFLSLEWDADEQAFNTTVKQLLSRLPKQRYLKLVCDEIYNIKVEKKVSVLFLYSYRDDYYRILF
T5 sequence (O43283 whole entry): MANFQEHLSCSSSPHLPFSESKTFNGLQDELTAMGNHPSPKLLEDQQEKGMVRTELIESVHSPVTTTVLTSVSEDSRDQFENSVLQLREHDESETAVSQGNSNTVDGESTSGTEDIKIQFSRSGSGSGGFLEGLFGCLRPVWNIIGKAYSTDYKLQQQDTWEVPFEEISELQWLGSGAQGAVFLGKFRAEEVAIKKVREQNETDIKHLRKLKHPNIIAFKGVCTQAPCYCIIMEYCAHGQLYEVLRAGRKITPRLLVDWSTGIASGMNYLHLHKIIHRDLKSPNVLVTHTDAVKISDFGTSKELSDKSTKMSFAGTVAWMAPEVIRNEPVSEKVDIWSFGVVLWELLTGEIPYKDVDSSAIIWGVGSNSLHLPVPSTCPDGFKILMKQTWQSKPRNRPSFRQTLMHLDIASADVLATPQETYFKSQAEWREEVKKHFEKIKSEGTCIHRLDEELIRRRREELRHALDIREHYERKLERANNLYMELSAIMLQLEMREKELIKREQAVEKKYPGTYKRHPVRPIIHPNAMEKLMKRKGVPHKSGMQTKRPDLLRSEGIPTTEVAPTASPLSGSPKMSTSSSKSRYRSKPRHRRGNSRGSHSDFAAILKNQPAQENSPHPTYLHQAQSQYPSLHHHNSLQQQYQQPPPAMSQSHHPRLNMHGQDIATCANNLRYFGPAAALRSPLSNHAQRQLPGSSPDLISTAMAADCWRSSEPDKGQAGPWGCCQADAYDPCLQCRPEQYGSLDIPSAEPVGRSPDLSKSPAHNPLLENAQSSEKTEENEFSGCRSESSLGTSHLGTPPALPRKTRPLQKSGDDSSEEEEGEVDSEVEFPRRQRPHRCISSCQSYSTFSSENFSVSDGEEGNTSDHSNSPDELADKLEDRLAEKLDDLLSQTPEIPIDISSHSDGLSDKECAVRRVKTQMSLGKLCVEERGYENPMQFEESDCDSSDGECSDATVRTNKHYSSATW
Sequence of ACVR2B (Q13705 whole entry): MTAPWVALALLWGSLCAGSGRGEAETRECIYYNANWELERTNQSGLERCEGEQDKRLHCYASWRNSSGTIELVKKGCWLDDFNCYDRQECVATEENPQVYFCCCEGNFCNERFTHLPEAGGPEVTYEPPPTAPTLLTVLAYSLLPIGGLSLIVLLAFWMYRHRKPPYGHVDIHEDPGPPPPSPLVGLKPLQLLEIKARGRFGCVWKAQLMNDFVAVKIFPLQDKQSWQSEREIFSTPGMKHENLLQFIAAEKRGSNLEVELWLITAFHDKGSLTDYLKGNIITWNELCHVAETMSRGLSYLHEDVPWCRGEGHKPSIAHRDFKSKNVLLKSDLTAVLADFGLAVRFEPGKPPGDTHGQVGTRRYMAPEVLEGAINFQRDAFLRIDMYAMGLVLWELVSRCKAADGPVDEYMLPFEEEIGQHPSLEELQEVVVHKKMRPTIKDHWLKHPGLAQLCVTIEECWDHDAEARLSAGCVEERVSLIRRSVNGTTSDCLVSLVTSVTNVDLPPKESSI
T4 sequence (P45983 whole entry): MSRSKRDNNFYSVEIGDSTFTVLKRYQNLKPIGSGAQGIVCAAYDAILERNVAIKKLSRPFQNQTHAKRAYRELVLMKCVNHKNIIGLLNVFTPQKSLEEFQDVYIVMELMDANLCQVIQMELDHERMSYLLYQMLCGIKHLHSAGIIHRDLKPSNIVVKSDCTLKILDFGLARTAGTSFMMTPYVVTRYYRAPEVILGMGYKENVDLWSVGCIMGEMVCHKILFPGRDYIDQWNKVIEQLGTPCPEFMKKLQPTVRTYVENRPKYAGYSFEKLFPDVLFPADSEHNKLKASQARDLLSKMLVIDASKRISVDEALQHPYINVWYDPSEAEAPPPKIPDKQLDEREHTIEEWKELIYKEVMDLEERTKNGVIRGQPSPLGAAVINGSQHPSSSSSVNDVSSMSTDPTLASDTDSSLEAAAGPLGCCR

`C=CC(=O)Nc1cc(-n2c(=O)ccc3cnc4ccc(-n5cccn5)cc4c32)ccc1C` [CHMFL-BTK-11] showed a remaining binding at 1 µM (ACVR2B) of 95%, a remaining binding at 1 µM (ARK5) of 100% and a remaining binding at 1 µM (BMPR1A) of 100%. The remaining binding at 1 µM (CDK11) was 89%, the remaining binding at 1 µM (EGFR(L858R,T790M)) was 42% and the remaining binding at 1 µM (EPHB4) was 100%. It also gave a remaining binding at 1 µM (FES) of 90%, a remaining binding at 1 µM (FLT3-autoinhibited) of 100% and a remaining binding at 1 µM (GCN2(Kin.Dom.2,S808G)) of 100%. It also gave a remaining binding at 1 µM (GSK3B) of 100%, a remaining binding at 1 µM (JNK1) of 72% and a remaining binding at 1 µM (LZK) of 100%. The remaining binding at 1 µM (MAP4K5) was 100%, the remaining binding at 1 µM (MKNK2) was 98% and the remaining binding at 1 µM (MRCKB) was 100%. For the same molecule, the remaining binding at 1 µM (MST2) was 97%, the remaining binding at 1 µM (MYLK) was 82% and the remaining binding at 1 µM (NDR1) was 68%. The remaining binding at 1 µM (NEK7) was 100%, the remaining binding at 1 µM (PHKG1) was 100% and the remaining binding at 1 µM (PRKCH) was 84%. The remaining binding at 1 µM (RIPK4) was 100%, the remaining binding at 1 µM (ROCK1) was 89% and the remaining binding at 1 µM [1] was 85%.
